Measurements: patent US20090137600A1, “Antiplatelet agent and process for producing the same” (priority 2004, published 2009)
Entries after “also recorded” stand apart in the source; their conditions may differ. Where two headings read alike, the source gives them in different places.

How the values were obtained:
[1] = Crystal stability on storage at 25° C. and 0%, 52% or 93% RH for 3 days; assay type: physicochemical; parameters: key to Crystal form (change): No: No change; Yes: Some change
Experimental: Compounds (1a), (1b), and (1c) as well as various salts of Compound (1a) produced in the Examples as described above were stored at 25° C. and at a relative humidity of 0%, 52%, or 93% for 3 days to evaluate change in weight and crystal form. Change in crystal form was measured in the case of fumarate at a low humidity, and in the case of Compound (1a) and its citrate at a high humidity. The salts of Compound (1a) were produced according to the method of Example 3.

[2] = Solubility in water, JP1 solution and JP2 solution; assay type: physicochemical
[3] = Stability under wet heat, dry heat and beam irradiation; assay type: physicochemical
[4] = tested on: platelet aggregation induced by collagen; assay: Inhibition of platelet aggregation induced by collagen (general statement); assay type: cell-based; settings: species not given
[5] = tested on: thrombogenesis; assay: Model of thrombosis induced by high shear stress; assay type: in vivo
[6] = tested on: platelet aggregation induced by collagen in PRP of guinea pig; assay: Evaluation of oral absorption: ex vivo collagen-induced platelet aggregation in PRP of orally dosed guinea pig; settings: for ex vivo inhibition of the platelet aggregation by the collagen: general statement, no dose given
[7] = tested on: thrombogenesis; assay: Thrombus model induced by iron chloride; assay type: in vivo
[8] = molecular target: T1, COX-2 (Homo sapiens, UniProt P35354); assay: Inhibition of cyclooxygenase-2 (COX inhibitor screening assay kit, PGF2α ELISA); assay type: biochemical; settings: for IC50 for COX-2 relative to IC50 of platelet aggregation suppression: ratio COX-2 IC50 / platelet aggregation IC50
T1 sequence (P35354 18-604): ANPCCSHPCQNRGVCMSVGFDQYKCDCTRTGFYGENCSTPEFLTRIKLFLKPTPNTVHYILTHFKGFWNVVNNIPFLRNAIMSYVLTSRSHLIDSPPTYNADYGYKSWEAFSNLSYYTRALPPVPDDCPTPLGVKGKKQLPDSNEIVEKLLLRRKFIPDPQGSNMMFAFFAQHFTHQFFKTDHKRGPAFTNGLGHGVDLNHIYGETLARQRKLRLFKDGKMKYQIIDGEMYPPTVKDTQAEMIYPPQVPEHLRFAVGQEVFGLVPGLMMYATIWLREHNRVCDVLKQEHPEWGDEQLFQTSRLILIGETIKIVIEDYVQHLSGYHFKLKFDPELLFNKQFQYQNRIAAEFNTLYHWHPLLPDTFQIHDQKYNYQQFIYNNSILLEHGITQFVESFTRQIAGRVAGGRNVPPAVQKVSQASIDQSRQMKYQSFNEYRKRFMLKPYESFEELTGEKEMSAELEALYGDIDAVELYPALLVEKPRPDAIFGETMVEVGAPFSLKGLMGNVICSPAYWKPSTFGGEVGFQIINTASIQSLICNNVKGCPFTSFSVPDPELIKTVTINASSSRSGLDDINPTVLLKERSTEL
Experimental: (§1) Screening assay kit for COX inhibitor (Cayman Chemical Company, Catalog Nos. 560101 and 560121) were used to measure inhibitory activity of each compound for COX-1 and COX-2.
(§2) Reaction buffer, heme, arachidonic acid, SnCl2, EIA buffer, wash buffer, prostaglandin (PG) screening EIA standard, PG screening acetylcholinesterase (AchE) tracer ([…]), and PG screening EIA antiserum were prepared before the measurement.
(§3) The reaction solution containing various concentration of the compound of the Examples and COX-1 or COX-2 was allowed to stand at 37° C. for 10 minutes. 10 μL of arachidonic acid was added, and the reaction solution was allowed to stand at 37° C. for 2 minutes. After the reaction, 50 μL of 1N hydrochloric acid was added to cease the reaction, and 100 μL of SnCl2 solution was added, and the reaction solution was allowed to stand at room temperature for 5 minutes.
(§4) 50 μL of an antiserum (rabbit anti-PGF2α antibody) was added to each well of a 96 well plate which had been coated with mouse anti-rabbit IgG, and to each well was added 50 μL of a 2000-fold dilution of the PGF2α producing reaction solution, and then, 50 μL of the AchE tracer. The reaction mixture was allowed to stand at room temperature for 18 hours. The wells were washed 5 times with the wash buffer to remove the excessive AchE tracer, and 200 μL of Ellman reagent was added. After allowing to stand in a dark room for 60 minutes, the absorbance was measured at 405 nm.
(§5) Standard curve was depicted by using PG screening EIA standard, and amount of the PGF2α produced was determined from the absorbance.

[9] = molecular target: T2, COX-1 (Ovis aries, UniProt P05979); assay: Inhibition of cyclooxygenase-1 (COX inhibitor screening assay kit, PGF2α ELISA); assay type: biochemical; settings: for IC50 for COX-1 relative to IC50 of platelet aggregation suppression: ratio COX-1 IC50 / platelet aggregation IC50
T2 sequence (P05979 25-600): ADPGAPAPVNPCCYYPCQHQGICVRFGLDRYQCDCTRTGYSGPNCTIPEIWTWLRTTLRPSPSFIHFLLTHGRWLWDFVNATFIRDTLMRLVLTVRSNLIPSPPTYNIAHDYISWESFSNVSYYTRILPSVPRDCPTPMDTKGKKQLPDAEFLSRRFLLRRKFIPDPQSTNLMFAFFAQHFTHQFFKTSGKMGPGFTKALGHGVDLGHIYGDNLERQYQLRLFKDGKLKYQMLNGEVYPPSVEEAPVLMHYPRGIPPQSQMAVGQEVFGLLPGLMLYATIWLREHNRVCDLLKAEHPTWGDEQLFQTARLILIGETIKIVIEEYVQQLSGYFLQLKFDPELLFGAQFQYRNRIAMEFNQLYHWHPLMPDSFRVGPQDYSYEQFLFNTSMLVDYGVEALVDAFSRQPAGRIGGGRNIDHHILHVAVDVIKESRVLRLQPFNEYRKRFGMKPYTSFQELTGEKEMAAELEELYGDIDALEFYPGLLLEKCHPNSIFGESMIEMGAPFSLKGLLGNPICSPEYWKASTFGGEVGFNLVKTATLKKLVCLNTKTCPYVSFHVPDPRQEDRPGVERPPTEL
Experimental: as §1, §2, §3, §4, §5

[10] = Safety (general statement)
[11] = tested on: human platelet rich plasma (PRP), aggregation induced by collagen; assay: Suppression of collagen-induced platelet aggregation in human PRP; assay type: cell-based
Experimental: (§6) After removing the PRP in the upper layer, the lower layer was further centrifuged at 1600 g for 10 minutes to separate the platelet poor plasma (PPP). 1 μL of the solution of Compound (I) or Comparative Examples 1 to 3 was added to 200 μL of PRP, and the mixture was allowed to stand at 37° C. for 2 minutes. Platelet aggregation was then induced by adding 2 μL of collagen to the mixture. Platelet aggregation rate was measured by using PAM-12C (SSR Engineering).

[12] = tested on: guinea pig platelet rich plasma (PRP), aggregation induced by collagen; assay: Suppression of collagen-induced platelet aggregation in guinea pig PRP; assay type: cell-based; settings: Cavia porcellus
Experimental: as §6

Molecule	Crystal form (change) ([1]; 0% RH)	Weight change (%) ([1]; 0% RH)	Crystal form (change) ([1]; 52% RH)	Weight change (%) ([1]; 52% RH)	Crystal form (change) ([1]; 93% RH)	Weight change (%) ([1]; 93% RH)	solubility in water, JP1 solution and JP2 solution [2]	inhibition of the platelet aggregation induced by collagen [4]	ex vivo inhibition of the platelet aggregation by the collagen [6]	IC50 [8] [µM]	IC50 for COX-2 relative to IC50 of platelet aggregation suppression [8] [fold]	IC50 [9] [µM]	IC50 for COX-1 relative to IC50 of platelet aggregation suppression [9] [fold]	further results
Citrate	No	0.00	No	0.00	Yes	2.45								
Maleate	No	0.00	No	0.40	No	0.39								
COc1ccc(-n2nc(C(=O)N3CCN(C)CC3)cc2-c2ccccn2)nn1 [Compound (1c), [1-(6-methoxypyridazine-3-yl)-5-(pyridine-2-yl)-1H-pyrazole-3-yl] (4-methylpiperazine-1-yl)methanone mono-1-tartrate]	No	−0.20	No	0.00	No	0.19	highly soluble	remarkable inhibition						stability under wet heat, dry heat, and beam irradiation [3]: extremely stable
COc1ccc(-n2nc(C(=O)N3CCN(C)CC3)cc2-c2ccccn2)nn1.Cl [Compound (1b), [1-(6-Methoxypyridazine-3-yl)-5-(pyridine-2-yl)-1H-pyrazole-3-yl] (4-methylpiperazine-1-yl)methanone Monohydrochloride]	No	0.20	No	0.58	Yes	11.54	good solubility	remarkable inhibition	strong ex vivo inhibition	> 100	100	> 100	100	inhibition of the thrombogenesis [5]: remarkable inhibition; platelet aggregation induced by collagen, ex vivo ([6]; guinea pig, 10 mg/kg oral, 1 hour after administration, collagen 0.8 μg to 2.5 μg): remarkably suppressed; oral absorbability ([6]; Monohydrochloride): excellent oral absorption; also recorded: sufficiently absorbed; also recorded: favorable oral absorbability; suppression of thrombogenesis [7]: remarkable suppression; safety [10]: no safety problems; IC50 ([11]; Homo sapiens, Platelet): 0.86 µM
Fumarate	Yes^2)	−5.65	No	1.60	No	0.59								
COc1ccc(-n2nc(C(=O)N3CCN(C)CC3)cc2-c2ccccn2)nn1 [Compound (1a), [1-(6-methoxypyridazine-3-yl)-5-(pyridine-2-yl)-1H-pyrazole 3-yl](4-methylpiperazine-1-yl)methanone]	No^1)	−0.41	No	0.41	Yes	7.99		remarkable inhibition	strong ex vivo inhibition	> 50	100	97	100	oral absorbability [6]: excellent oral absorption; IC50 [12]: 0.13 µM; IC50 [11]: 1.1 to 1.3 µM
